This is an account of results in patent US12678509B2, “Inhibitor of apoptosis (IAP) protein antagonists” (Sanford Burnham Prebys Medical Discovery Institute, priority 2019, dated 2026).

In experiment [1] the test system is NB-4. Put plainly: Cell viability (CellTiter-Glo). In kind it is cell-based, Human. To be noted: Homo sapiens, NB-4, 72 h, read-out: NB-4 Viability 72 h IC50. As for the experimental part:
The compound 18a was tested in 16 different cell lines. For 6-day compound treatment 1700 cells per well were plated in a 384-well plate (Corning #781098) and incubated overnight at 37° C./5% CO2. […] Afterwards, 20 μL CellTiter-Glo reagent (Promega, #G7570) was added to each well outside of the incubator and the plates were read for luminescence on a Spark® multimode microplate reader (Tecan). Data was fit in GraphPad Prism 8 to a nonlinear regression curve to determine the IC50 of the compounds. […]
(ATP-based viability assays read luminescence as a measure of living cells.)

In experiment [2] the test system is SKOV-3. Put plainly: Cell viability (CellTiter-Glo), 48 hrs. It is filed as cell-based. As to conditions: Homo sapiens, SK-OV-3, 48 h, read-out: SKOV-3 Viability 48 h IC50. The method, then: One thousand seven hundred cells per well were plated in a 384 well plate and incubated overnight at 37° C./5% CO2. The following day, compounds in 10-fold dilutions were added to the plates and the plates returned to the incubator for 48 hrs. 48 hrs later, plates were removed to the bench and 20 μL CellTiter-Glo reagent was added to each well and the plates were read for luminescence on a Spark® multimode microplate reader (Tecan). Data were fit using PRISM to a nonlinear regression curve to determine the IC50 of the compounds.

Experiment [3] addresses BIR3 domain of cIAP1 (Homo sapiens, UniProt Q13490). Put plainly: Fluorescence polarization assay. It is filed as binding. As to conditions: SMAC-FITC probe, Ki calculated from IC50. As for the experimental part: Binding of compounds to ML-IAP and BIR3 domain of cIAP1, cIAP2 and XIAP was determined by fluorescence polarization. Assay buffer was 100 mM KH2PO4 at pH 7.5, 50 μM ZnSO4, 1 mM TCEP (Tris(2-carboxyethyl)phosphine hydrochloride) and 50 nM SMAC-FITC probe (AbuRPF-K(5-Fam)-NH2) as described by Z. Nikolovska-Coleska et al.^9. cIAP1 and XIAP were present at 800 nM while cIAP2 and MLIAP were present at 1.5 μM. Compounds in 3-fold dilutions were added to the plates ranging from 30 μM to 1.5 nM. Assays were run in 384-well black plates read (Greiner Bio-One #784076) in an Analyst in fluorescence polarization mode with excitation at 485 nm and emission at 535 nm. Data was fit to a nonlinear regression curve in GraphPad Prism 8 to determine the IC50 values of the compounds. Ki's were then calculated from the IC50 values using equation: Ki=[I]50/([L]50/Kd+[P]0/Kd+1) formulated by Z. Nikolovska-Coleska et al.

Experiment [4] has as its system latently infected cell line Jurkat 2D10. Nature of the experiment: HIV Jurkat 2D10 cells GFP+ assay (reversal of HIV latency). In kind it is cell-based. As to conditions: Homo sapiens, Jurkat, 48 h, read-out: Jurkat 2D10 GFP+ EC50. As for the experimental part: Several compounds (Table 5) were tested for their efficacy in the reversal of HIV latency in the latently infected cell line Jurkat 2D10. Jurkat 2D10 cells were treated with different doses of the compounds, or one of the following compounds: BV-6, SM-164, Birinapant, LCL-161, GDC-0152, AT-406 for 48 hours. Reversal of HW latency was evaluated by analyzing GFP expression using flow cytometry. Induction of GFP expression was compared to baseline GFP levels detected in the absence of treatment.

Experiment [5] relates to MOLM 13. Nature of the experiment: Cell viability (CellTiter-Glo), 6-day compound treatment. In kind it is cell-based, Human. To be noted: Homo sapiens, MOLM-13, 144 h, read-out: MOLM 13 Viability 6 d IC50. The method, then: The compound 18a was tested in 16 different cell lines. For 6-day compound treatment 1700 cells per well were plated in a 384-well plate (Corning #781098) and incubated overnight at 37° C./5% CO2. The following day, compounds in 10-fold dilutions were added to the plates and the plates were incubated for 6 days. Afterwards, 20 μL CellTiter-Glo reagent (Promega, #G7570) was added to each well outside of the incubator and the plates were read for luminescence on a Spark® multimode microplate reader (Tecan). Data was fit in GraphPad Prism 8 to a nonlinear regression curve to determine the IC50 of the compounds. […]

BIR3 domain of cIAP1, sequence (Q13490 253-363 limits assumed): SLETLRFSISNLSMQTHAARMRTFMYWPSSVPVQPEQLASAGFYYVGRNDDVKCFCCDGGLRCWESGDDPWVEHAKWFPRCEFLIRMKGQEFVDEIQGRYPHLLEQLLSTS

What is called IC50 is the midpoint of a concentration-inhibition curve. For orientation: Ki means a measure of affinity in units of concentration, obtained from inhibition or displacement. The EC50 is the concentration giving half of the maximal effect. For `CN[C@@H](C)C(=O)N[C@H]1CCS[C@H]2CC(C)(C)[C@@H](C(=O)N[C@H]3c4ccccc4C[C@H]3OCCS(=O)(=O)CCO[C@@H]3Cc4ccccc4[C@@H]3NC(=O)[C@H]3N4C(=O)[C@@H](NC(=O)[C@H](C)NC)CCS[C@H]4CC3(C)C)N2C1=O` [Compound 18h, (2S)-1-{[(4S,7S,9aS)-7-{[(1S,2R)-2-{2-[(2-{[(1S,2R)-1-({[(4S,7S,9aS)-8,8-Dimethyl-4-{[(2S)-2-(methylammonio)propanoyl]amino}-5-oxooctahydropyrrolo[2,1-b][1,3]thiazepin-7-yl]carbonyl}amino)-2,3-dihydro-1H-inden-2-yl]oxy}ethyl)sulfonyl]ethoxy}-2,3-dihydro-1H-inden-1-yl]carbamoyl}-8,8-dimethyl-5-oxooctahydropyrrolo[2,1-b][1,3]thiazepin-4-yl]amino}-N-methyl-1-oxopropan-2-ammonium dichloride], the IC50 in experiment [1] is < 0.01 µM; in experiment [2] it was 0.01 to 0.1 µM. The Ki in experiment [3] was ≤ 0.05 µM. For the same molecule, in experiment [4], the half-maximal effective concentration (EC50) is 0.01 to 0.1 µM.

For the molecule `CN[C@@H](C)C(=O)N[C@H]1CCS[C@H]2CC3(CCCC3)[C@@H](C(=O)N[C@H]3c4ccccc4C[C@H]3OCC#CC#CCO[C@@H]3Cc4ccccc4[C@@H]3NC(=O)[C@H]3N4C(=O)[C@@H](NC(=O)[C@H](C)NC)CCS[C@H]4CC34CCCC4)N2C1=O` [Compound 18r], in experiment [4], the EC50 was in the range of 0.01 to 0.1 µM.

Regarding `CN[C@@H](C)C(=O)N[C@H]1CCS[C@H]2CC(C)(C)[C@@H](C(=O)N[C@H]3c4ccccc4C[C@H]3OCC#Cc3cccc(C#CCO[C@@H]4Cc5ccccc5[C@@H]4NC(=O)[C@H]4N5C(=O)[C@@H](NC(=O)[C@H](C)NC)CCS[C@H]5CC4(C)C)c3)N2C1=O` [Compound 18d], the results for the IC50 in experiment [1], in experiment [5] and in experiment [2] were < 0.01 µM, 0.1 to 1 µM and < 0.01 µM, respectively. Moreover, in experiment [3], the Ki was ≤ 0.05 µM. Moreover, the EC50 in experiment [4] is < 0.001 µM.

Turning to `CN[C@@H](C)C(=O)N[C@H]1CCS[C@H]2CC(C)(C)[C@@H](C(=O)N[C@H]3c4ccccc4C[C@H]3OCC#CCO[C@@H]3Cc4ccccc4[C@@H]3NC(=O)[C@H]3N4C(=O)[C@@H](NC(=O)[C@H](C)NC)CCS[C@H]4CC3(C)C)N2C1=O` [Compound 18j], the IC50 was < 0.01 µM in experiment [1], 1 to 10 µM in experiment [5] and 0.01 to 0.1 µM in experiment [2]. Moreover, the Ki in experiment [3] was ≤ 0.05 µM. In experiment [4], the 50% effective concentration (EC50) was in the range of 1 to 10 µM.

`CN[C@@H](C)C(=O)N[C@H]1CCS[C@H]2CC(C)(C)[C@@H](C(=O)N[C@H](CCC(=O)NCCNC(=O)CC[C@@H](NC(=O)[C@H]3N4C(=O)[C@@H](NC(=O)[C@H](C)NC)CCS[C@H]4CC3(C)C)c3ccccc3)c3ccccc3)N2C1=O` [Compound 18l, (2S)-1-{[(4S,7S,9aS)-74{(1R)-4-[(2-{[(4R)-4-({[(4S,7S,9aS)-8,8-Dimethyl-4-{[(2S)-2-(methylammonio)propanoyl]amino}-5-oxooctahydropyrrolo[2,1-b][1,3]thiazepin-7-yl]carbonyl}amino)-4-phenylbutanoyl]amino}ethyl)amino]-4-oxo-1-phenylbutyl}carbamoyl)-8,8-dimethyl-5-oxooctahydropyrrolo[2,1-b][1,3]thiazepin-4-yl]amino}-N-methyl-1-oxopropan-2-ammonium dichloride]: the IC50 in experiment [1] lay in the range of 0.01 to 0.1 µM; in experiment [2], 0.1 to 1 µM. Moreover, the Ki in experiment [3] is ≤ 0.05 µM. Further, the EC50 in experiment [4] is 0.1 to 1 µM.

With `CN[C@@H](C)C(=O)N[C@H]1CCS[C@H]2CC(C)(C)[C@@H](C(=O)N[C@H]3c4ccccc4C[C@H]3OCc3ccc(-c4ccc(CO[C@@H]5Cc6ccccc6[C@@H]5NC(=O)[C@H]5N6C(=O)[C@@H](NC(=O)[C@H](C)NC)CCS[C@H]6CC5(C)C)cc4)cc3)N2C1=O` [Compound 18f, (2S)-1-{[(4S,7S,9aS)-7-{[(1S,2R)-2-({4-[4-({[(1S,2R)-1-({[(4S,7S,9aS)-8,8-Dimethyl-4-{[(2S)-2-(methylammonio)propanoyl]amino}-5-oxooctahydropyrrolo[2,1-b][1,3]thiazepin-7-yl]carbonyl}amino)-2,3-dihydro-1H-inden-2-yl]oxy}methyl)phenyl]benzyl}oxy)-2,3-dihydro-1H-inden-1-yl]carbamoyl}-8,8-dimethyl-5-oxooctahydropyrrolo[2,1-b][1,3]thiazepin-4-yl]amino}-N-methyl-1-oxopropan-2-ammonium dichloride], the IC50 in experiment [1] was < 0.01 µM; in experiment [5], 0.1 to 1 µM; in experiment [2], < 0.01 µM. In addition, the Ki in experiment [3] was 0.05 to 0.1 µM. The EC50 in experiment [4] lay in the range of 0.001 to 0.01 µM.

As for `C=CCC1(CC=C)C[C@@H]2SCC[C@H](NC(=O)[C@H](C)NC)C(=O)N2[C@@H]1C(=O)N[C@H]1c2ccccc2C[C@H]1OCC#CC#CCO[C@@H]1Cc2ccccc2[C@@H]1NC(=O)[C@H]1N2C(=O)[C@@H](NC(=O)[C@H](C)NC)CCS[C@H]2CC1(CC=C)CC=C` [Compound 18n, (2S)-2-{[(4S,7S,9aS)-7-{[(1S,2R)-2-[(6-{[(1S,2R)-1-[(4S,7S,9aS)-4-[(2S)-2-(Methylamino)propanamido]-5-oxo-8,8-bis(prop-2-en-1-yl)-octahydropyrrolo[2,1-b][1,3]thiazepine-7-amido]-2,3-dihydro-1H-inden-2-yl]oxy}hexa-2,4-diyn-1-yl)oxy]-2,3-dihydro-1H-inden-1-yl]carbamoyl}-5-oxo-8,8-bis(prop-2-en-1-yl)-octahydropyrrolo[2,1-b][1,3]thiazepin-4-yl]carbamoyl}-2-(methylazaniumyl)ethanide dichloride], the results for the IC50 in experiment [5] and in experiment [2] were 0.1 to 1 µM and 0.01 to 0.1 µM, respectively. For the same molecule, the Ki in experiment [3] was 0.05 to 0.1 µM. The EC50 in experiment [4] lay in the range of 0.01 to 0.1 µM.

On to `CN[C@@H](C)C(=O)N[C@H]1CCS[C@H]2C[C@H](O)[C@@H](C(=O)N[C@H]3c4ccccc4C[C@H]3OCC#CC#CCO[C@@H]3Cc4ccccc4[C@@H]3NC(=O)[C@@H]3[C@@H](O)C[C@@H]4SCC[C@H](NC(=O)[C@H](C)NC)C(=O)N43)N2C1=O` [Compound 18p, [(1S)-1-{[(4S,7S,8S,9aS)-7-{[(1S,2R)-2-[(6-{[(1S,2R)-1-[(4S,7S,8S,9aS)-8-Hydroxy-4-[(2S)-2-(methylazaniumyl)propanamido]-5-oxo-octahydropyrrolo[2,1-b][1,3]thiazepine-7-amido]-2,3-dihydro-1H-inden-2-yl]oxy}hexa-2,4-diyn-1-yl)oxy]-2,3-dihydro-1H-inden-1-yl]carbamoyl}-8-hydroxy-5-oxo-octahydropyrrolo[2,1-b][1,3]thiazepin-4-yl]carbamoyl}ethyl](methyl)azanium dichloride], for which the EC50 in experiment [4] is 0.1 to 1 µM.

With `CNC(C)(C)C(=O)N[C@H]1CCS[C@H]2CC(C)(C)[C@@H](C(=O)N[C@H]3c4ccccc4C[C@H]3OCC#CC#CCO[C@@H]3Cc4ccccc4[C@@H]3NC(=O)[C@H]3N4C(=O)[C@@H](NC(=O)C(C)(C)NC)CCS[C@H]4CC3(C)C)N2C1=O` [Compound 18k, 1-{[(4S,7S,9aS)-7-({(1S,2R)-2-[(6-{[(1S,2R)-1-({[(4S,7S,9aS)-8,8-Dimethyl-4-{[2-methyl-2-(methylammonio)propanoyl]amino}-5-oxooctahydropyrrolo[2,1-b][1,3]thiazepin-7-yl]carbonyl}amino)-2,3-dihydro-1H-inden-2-yl]oxy}hexa-2,4-diyn-1-yl)oxy]-2,3-dihydro-1H-inden-1-yl}carbamoyl)-8,8-dimethyl-5-oxooctahydropyrrolo[2,1-b][1,3]thiazepin-4-yl]amino}-N,2-dimethyl-1-oxopropan-2-ammonium dichloride], the IC50 in experiment [1] lay in the range of 0.01 to 0.1 µM; in experiment [5], 1 to 10 µM; in experiment [2], 0.1 to 1 µM. In addition, the Ki in experiment [3] was 0.05 to 0.1 µM. Further, the concentration for a half-maximal effect (EC50) in experiment [4] was > 10 µM.
